Among the data in a melting point compilation (Tetko et al.; mined from patent text by program, amines drawn as free bases though some values may be those of a salt) are melting point values, retold here.

As usually defined, the melting point is the temperature, or range, at which the solid turns liquid.

Bounds are passed on as bounds.

Compound `CN(C)CCN(C)C(=O)Oc1ccc(Cl)cc1Cn1nc(-c2ccc(C(F)(F)F)cc2)oc1=O` showed a melting point of 127 to 129 °C. On to `COc1cc(Nc2c(C#N)cnc3cc(-c4ccc(C=O)o4)ccc23)c(Cl)cc1Cl`, for which the melting point was above 250 °C.

As for `Cn1cc2c([C@H]3C[C@H]3CN)cccc2n1` (relative stereo), the melting point lay in the range of 155 to 156 °C.

Consider `CCOC(=O)c1c(Sc2ccccc2)n(C2CC2)c2c(F)c(F)c(F)cc2c1=O`, for which the melting point was in the range of 135 to 137 °C. `COc1cc2c(cc1Nc1ncc(Cl)c(N[C@H]3[C@@H](C(N)=O)[C@@H]4C=C[C@H]3C4)n1)CCN(CCS(C)(=O)=O)CC2` had a melting point of 132 to 146 °C.

Compound `CC1(c2ccccc2)C(=O)c2c(cc(O)c(Cl)c2Cl)C1c1ccccc1` (stereo unspecified) had a melting point of 238 to 244 °C. Regarding `COc1cc2c(cc1OC)CN(CCCSc1ccc(NC(=O)c3cccc4c(=O)c5ccccc5[nH]c34)cc1)CC2`, the melting point came out at 182 °C. The compound `CC(=O)ON(C(N)=O)C(C)c1cc2ccccc2s1` (stereo unspecified) had a melting point of 138 °C. As for `CCc1cccc2c1S(=O)(=O)c1ccccc1O2`, the figure is 101 to 103 °C; as for `CC(=O)c1ccc(N(C2CC2)S(=O)(=O)c2cccc(C(=O)Nc3ccc(C#N)cc3)c2)cc1`, 185 to 186 °C; as for `CCCCCCCCCCCCc1nnn(CC(=O)OCC)n1`, 38 to 40 °C. `CN(C)C=NS(=O)(=O)c1cc(CCNC(=O)C(F)(F)F)ccc1OCCOC(F)(F)F`: the melting point lay within 111 to 114 °C. In turn, `CC(=O)OC1CCC2(C)C(CCC3=C4C(=O)CC(C(C)CCCOS(=O)(=O)c5ccc(C)cc5)C4(C)CCC32)C1` (stereo unspecified) gave a melting point of 158 to 160 °C. As for `CCOc1cc(C(=O)O)cc(S(N)(=O)=O)c1-c1ccccc1`, the melting point was in the range of 149 to 150 °C. Compound `Brc1cc(Br)c(-c2ccccc2)nn1` yielded a melting point of 145 to 146 °C.

The compound `CC[C@@H](NC(=O)N1CC(=O)NC[C@H](Cc2cc(Cl)ccc2OC)C1=O)c1ccc(C(=O)O)c(N)c1` showed a melting point of 139 to 140 °C. The compound `Clc1cnc2c(-c3ccccc3)nc(Cl)nc2c1` came in with a melting point of 140 to 141 °C. `Nc1cc(C(O)=S)cc(Cc2ccccc2)c1Cc1ccccc1` showed a melting point of 256 to 257 °C. `OC(c1ccc(F)cc1)(c1ccc(F)cc1)C1CCN(CCCOc2ccc(-c3ccccc3)cc2)CC1` gave a melting point of 108 to 109 °C. The compound `CCCn1c(=O)c(-c2ccccc2)c2n(c1=O)C=CCS2=O` (stereo unspecified) registered a melting point of 174 to 175 °C. For the compound `COc1nccc2c(N)cccc12`, the melting point was 53 to 57 °C. `CCn1cc(C(=O)O)c(=O)c2cc(F)c(N3CCCC(CN)C3)nc21` (stereo unspecified) yielded a melting point of 120 to 122 °C. For `O=[N+]([O-])c1ccc(O)c(CNCCC(F)=C(F)F)c1`, the melting point was in the range of 96 to 98 °C. As for `CCc1cn2ccc(NC(=O)c3cc4cc(C(F)(F)F)cnc4n3Cc3cccc(F)c3)cc2n1`, the figure is 264 to 265 °C; as for `Clc1ncnc(Cl)c1Oc1ccccc1`, 89 to 90 °C. As to `CN1Cc2cc3ccc4c(c3c(-c3ccc5c(c3)OCO5)c2C1=O)OCO4`, the melting point lay within 242 to 244 °C.

In turn, `O=c1[nH]c2ccc(S(=O)CCN3CCC(Cc4cccc(F)c4F)CC3)cc2o1` (stereo unspecified) registered a melting point of 188 to 190 °C. In turn, `CCOC(=O)C(=CNc1ccc(F)c(F)c1OCC1CN(Cc2ccccc2)CCN1Cc1ccccc1)C(=O)OCC` (stereo unspecified) yielded a melting point of 109 to 110 °C. The compound `Cc1cc(-c2cc(C(F)(F)F)n3ncc(C(=O)Nc4cccc(S(C)(=O)=O)c4)c3n2)ccc1C(F)(F)F` yielded a melting point of 233 °C. Turning to `CCCC(=O)c1cnc2ccsc2c1Cl`, the melting point is 78 to 80 °C. `CC1(C)C(c2cccs2)=NN=C1c1cccs1` yielded a melting point of 153 to 156 °C. In the case of `CC(=O)OCC1OC(CCOS(C)(=O)=S)C(OC(C)=O)C(OC(C)=O)C1OC(C)=O` (stereo unspecified), the melting point lay within 115 to 116 °C. Regarding `Cc1cccc(Cl)c1Nc1nc2ccc(-c3c(C)cccc3C)cc2n2cncc12`, the melting point fell in the range of 140 to 150 °C. Consider `COCOc1cc([N+](=O)[O-])c(F)cc1Cl`, for which the melting point lay within 78 to 80 °C. `CNC(=S)C1(c2cnc3ccccc3c2)CCCCC1=CC#N` (stereo unspecified): the melting point lay in the range of 108 to 111 °C.

In turn, `CS(=O)(=O)Nc1ccc(C(=O)CN2CCN(c3cccnc3)CC2)cc1` showed a melting point of 197 to 198 °C. In turn, `Cc1cc(Br)ccc1C(=O)NCc1ccccn1` came in with a melting point of 86 to 87.5 °C. Take `CC(=O)Nc1ccc(N2CCC(=O)CC2)cc1`: the melting point was 158 to 159 °C. In turn, `CCOC(=O)/C=C/c1cc(-c2ccccc2)n(-c2ccc(S(C)(=O)=O)cc2)n1` displayed a melting point of 164 to 168 °C.

The compound `O=C1CCCN1C(=O)Oc1ccccc1` registered a melting point of 120 to 122 °C.

In the case of `CS(=O)(=O)CCNC(=O)c1cccc(-c2ccc3c(c2)C(Oc2ccc(Cl)cc2Cl)CC3)c1` (stereo unspecified), the melting point fell in the range of 140 to 143 °C.

On to `O=C1NC(=O)C(Cc2cccs2)N1` (stereo unspecified), for which the melting point was 188 to 190 °C.

Compound `CCC(CC)(COc1nn2ncnc2cc1C)CS(N)(=O)=O` had a melting point of 189 to 192 °C.

In the case of `Cc1ccc(C)c(OCc2ccccc2CCl)c1`, the melting point was 46.5 to 48.5 °C. The compound `COc1cc2c(c(OC)c1OC)-c1ccc(SC)c(=O)cc1C(N)CC2` (stereo unspecified) came in with a melting point of 168 to 170 °C. As for `O=C(Nc1cccc([N+](=O)[O-])c1)C(=O)N1CCC(Cc2ccc(F)cc2)CC1`, the figure is 135 to 138 °C.

`CC(C)(C)OC(=O)NCC(Cl)c1ccco1` (stereo unspecified): the melting point lay in the range of 75 to 77 °C.

As to `O=C(NCc1ccc(Cl)cc1)c1cc(Br)c2cccnc2c1O`, the melting point lay in the range of 148 to 151 °C. In turn, `CCN(CCNC(=O)c1ccnc(F)c1)CCNC(=O)c1cnc2cc(I)ccc2n1` displayed a melting point of 146 to 148 °C. Compound `CCn1cc(C(=O)O)c(=O)c2cc(F)c(S(=O)(=O)CC)nc21` returned a melting point of 249 to 252 °C. Compound `Cc1ccc2nc(C)c(=O)n(-c3ccc(Cl)cc3)c2c1` showed a melting point of 144 to 145 °C.

The compound `COC(CNC(=O)N(N=Cc1ccccc1)c1cc(Cl)c(Cc2ccc(C(=O)c3ccc(Cl)cc3)cc2)c(Cl)c1)OC` gave a melting point of 158 to 160 °C.

As to `Cc1ccc2c(c1)CC(Cl)c1cc(F)ccc1S2` (stereo unspecified), the melting point was 63 to 64 °C. For the compound `CCCCN(CCCC)CCOc1ccc(C(=O)c2c(CC)cc3ccccn23)cc1`, the melting point worked out at 116 °C. Compound `CCN(CC)CCN1C(=O)c2cc(OC)c3[nH]c4ccc(O)cc4c3c2C1=O` displayed a melting point of 226 to 228 °C. With `COc1cc(N)c(Cl)cc1C(=O)NC1CCN(CC2CCN(C(=O)C3CCOCC3)CC2)CC1`, the melting point lay within 235 to 237 °C. The compound `Cc1noc2cc3c(cc12)C1(CO3)C(=O)N(Cc2ncccc2C(F)(F)F)c2ccccc21` (stereo unspecified) came in with a melting point of 221 to 222 °C. In turn, `COC(=O)c1cc(C(=O)Nc2ccncc2)c2cc(Cc3ccc(F)cc3)cnc2c1O` yielded a melting point of 266 to 267 °C.

As for `CCOC(=O)C(=O)Nc1nccc2snc(NC(=O)C(=O)OCC)c12`, the melting point was 168 °C. `C#Cc1cn(-c2c(Cl)cc(C(F)(F)F)cc2Cl)nc1C(F)(F)F` registered a melting point of 95 to 98 °C. Take `CCCCOc1ccc(S(=O)(=O)C2(C(=O)O)CCN(Cc3ccc(OC)cc3)CC2)cc1`: the melting point worked out at 173 °C.

Take `Cc1c(C2CCC(Cc3ccccc3)(N(C)C)CC2)[nH]c2ccc(C(F)(F)F)cc12` (stereo unspecified): the melting point fell in the range of 166 to 174 °C. Then `N=C(Nc1ccccc1)Nc1ncccc1OCc1c(F)cccc1Cl`, with 147 to 149 °C; and `CC(=NOCCOc1ccc(CC2SC(=O)NC2=O)cc1)c1ccc(-c2ccccc2)nc1` (stereo unspecified), with 186 to 187 °C. Then `O=C(O)Cc1ccc(OCCNC(=O)C2Cc3ccccc3N2S(=O)(=O)c2ccc(-c3ccc(F)cc3)cc2)c(Cl)c1` (stereo unspecified), with 102 to 110 °C; and `CN(C)c1ccc(CSC2=NC(C)(C)C(SCc3ccc(N(C)C)cc3)=N2)cc1`, with 91 to 92 °C; and `C=C(CC)C(=O)c1ccc(OCC(=O)NCCCCF)c(Cl)c1Cl`, with 94 to 96 °C. Consider `CCOC(=O)c1cn(-c2nc(N)c(F)cc2F)c2c(F)c(F)c(F)c(N)c2c1=O`, for which the melting point fell in the range of 225 to 230 °C. Then `Cc1c(C(=O)Nc2ccc(-c3ccc(S(=O)(=O)NC(C(=O)O)C(C)C)cc3)cc2)oc2ccccc12` (stereo unspecified), with 264 to 266 °C. As for `COc1ccc(CCNC(=O)CC=CCC(=O)NCCc2ccccc2)cc1OC`, the melting point lay in the range of 150 to 152 °C. In turn, `COc1ccc(NC(=O)Nc2nc3nc(NCCCN4CCN(C)CC4)ncc3cc2-c2c(Cl)cccc2Cl)cc1` came in with a melting point of 93.5 to 100 °C. In turn, `COC(=O)NCCc1ccc(C(=O)OC)c(S(=O)(=O)NC(=O)Nc2nc(OC)cc(OC)n2)c1` registered a melting point of 165 to 169 °C. On to `CCOc1cc(C)cc2cc(C#N)c(=O)oc12`, for which the melting point came out at 173 °C. `Nc1nc(N)c2[nH]c(C3OC(CO)C(O)C3O)nc2n1` (stereo unspecified) came in with a melting point of 234 to 237 °C. In turn, `COc1ccc(C=O)cc1OCC(F)F` had a melting point of 66 to 68 °C. `CC(C)N1CC(=O)N(c2ccc(O)cc2F)C1=O`: the melting point lay within 190 to 192 °C.

Take `CCNc1ccc(C(=O)CBr)cc1S(N)(=O)=O`: the melting point fell in the range of 156 to 157 °C.

For the compound `COCCNc1ncc(-c2cnc3[nH]c(=O)n(CC4CCCCC4)c3n2)cn1`, the melting point was above 250 °C. On to `Cc1c(O)nc2ccccc2c1C(=O)O`, for which the melting point is above 300 °C. Then `CCC(=O)C1OC(O)C(O)C1OCc1ccccc1Cl` (stereo unspecified), with 130 to 133 °C; and `O=C(NC1CCOCC1)c1ccc(-c2cc(-c3c(-c4cccc(Cl)c4)nc4ccccn34)ccn2)cc1`, with 234 °C; and `Cc1cc(C)cc(S(=O)(=O)c2c(C(C)C)nc(C)n2C)c1`, with 126 to 128 °C. With `CC1(C)C=C(C(=O)NCC2COC(C)(C)O2)C(C)(C)N1` (stereo unspecified), the melting point fell in the range of 55 to 57 °C. Consider `CN(C)C(=O)n1cc2c(n1)-c1ccc(Cl)cc1C(c1ccccc1Cl)=NC2`, for which the melting point lay in the range of 175 to 176 °C. Turning to `COc1ccc2cc(S(N)(=O)=O)[nH]c2c1`, the melting point lay within 171 to 172 °C.

`Cn1c(=O)ccc2cnc(N3CCC[C@H]3CO)nc21` came in with a melting point of 143 to 144 °C.
